Reference: publication PMC7979765, “trans-Translation inhibitors bind to a novel site on the ribosome and clear Neisseria gonorrhoeae in vivo” (Nature Communications, 2021)
Several values for one entry are separate records, joined by “and”; a condition that tells them apart may be missing. Equal values may be shown once. Read-outs that look alike come from different tables or passages of the source.

How the values were obtained:
[1] = mouse
[2] = test system: Salmonella typhimurium strains TA98 and TA100; type: cell-based
Experimental: The Ames assay was performed at SRI Biosciences, following the standard protocols established there[55]–[57]. In brief, samples were evaluated for their ability to induce genetic damage using the plate incorporation method with Salmonella typhimurium strains TA98 and TA100 with and without a metabolic activation mixture containing 10% Aroclar-1254-induced rat-liver microsomes (S9). MBX-4132 was tested from a 5 mg/mL DMSO stock solution (the solubility limit), which provided plate concentrations up to 500 µg/plate, with serial dilutions accessing doses as low as 5 µg/plate. MBX-4132 precipitated at the two highest dose levels (500 and 100 µg/plate), but at 50 µg/plate, no precipitation was observed. […] Test articles were considered mutagenic when the mean number of revertant colonies increased in a dose-dependent manner. Some cytotoxicity was observed, but sufficient colonies were formed to allow analysis. […] Data for 2-nitrofluorene and sodium azide (positive controls) and DMSO (negative control) were included for reference.

[3] = target: T1, hERG potassium channel (Homo sapiens, UniProt Q12809); experiment: Receptor Profiling 265910; type: binding; conditions: probe [3H]dofetilide
T1 construct: purchased Eurofins Discovery Services (Panlabs safety panel)
T1 sequence (Q12809 whole entry): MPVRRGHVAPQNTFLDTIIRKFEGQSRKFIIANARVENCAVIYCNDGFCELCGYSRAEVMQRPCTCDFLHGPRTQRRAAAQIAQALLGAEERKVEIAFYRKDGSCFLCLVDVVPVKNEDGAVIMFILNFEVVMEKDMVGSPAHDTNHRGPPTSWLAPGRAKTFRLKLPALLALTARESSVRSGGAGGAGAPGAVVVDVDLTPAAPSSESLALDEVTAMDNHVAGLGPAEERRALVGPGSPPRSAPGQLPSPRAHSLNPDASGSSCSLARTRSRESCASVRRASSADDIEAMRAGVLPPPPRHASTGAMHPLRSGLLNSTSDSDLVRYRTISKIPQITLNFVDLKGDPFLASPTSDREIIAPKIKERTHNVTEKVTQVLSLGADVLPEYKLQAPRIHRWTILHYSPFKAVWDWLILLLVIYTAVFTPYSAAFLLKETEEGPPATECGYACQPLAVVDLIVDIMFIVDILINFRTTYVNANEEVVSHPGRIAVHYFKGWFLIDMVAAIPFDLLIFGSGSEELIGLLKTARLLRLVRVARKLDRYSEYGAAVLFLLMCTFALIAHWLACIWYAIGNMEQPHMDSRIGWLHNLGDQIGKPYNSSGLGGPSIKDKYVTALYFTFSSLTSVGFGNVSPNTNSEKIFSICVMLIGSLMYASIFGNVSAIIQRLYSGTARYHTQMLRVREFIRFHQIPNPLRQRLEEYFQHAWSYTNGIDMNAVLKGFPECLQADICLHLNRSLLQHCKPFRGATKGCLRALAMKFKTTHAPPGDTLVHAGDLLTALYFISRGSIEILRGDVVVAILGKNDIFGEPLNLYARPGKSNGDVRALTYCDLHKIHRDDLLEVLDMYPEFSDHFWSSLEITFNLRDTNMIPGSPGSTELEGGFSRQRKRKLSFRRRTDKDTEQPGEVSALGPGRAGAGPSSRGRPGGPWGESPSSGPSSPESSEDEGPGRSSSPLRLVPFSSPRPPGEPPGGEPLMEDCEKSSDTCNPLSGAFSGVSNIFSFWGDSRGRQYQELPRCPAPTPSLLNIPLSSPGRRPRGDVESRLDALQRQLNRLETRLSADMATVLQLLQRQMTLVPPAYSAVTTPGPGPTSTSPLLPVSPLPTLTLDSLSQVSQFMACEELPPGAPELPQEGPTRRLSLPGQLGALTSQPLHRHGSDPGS
Experimental: (§1) Several in vitro selectivity assays were performed at Eurofins Discovery Services using established methods and controls that behaved as expected (Supplementary Tables 5 and 6). […] For receptor panel profiling, MBX-4132 was evaluated at 10 μM and activity of >50% (agonist or antagonist; note that negative % inhibition indicates agonism) was scored as active.

[4] = target: T2, Muscarinic M2 (Homo sapiens, UniProt P08172); experiment: Receptor Profiling 252710; type: binding
T2 construct: purchased Eurofins Discovery Services (Panlabs safety panel)
T2 sequence (P08172 whole entry): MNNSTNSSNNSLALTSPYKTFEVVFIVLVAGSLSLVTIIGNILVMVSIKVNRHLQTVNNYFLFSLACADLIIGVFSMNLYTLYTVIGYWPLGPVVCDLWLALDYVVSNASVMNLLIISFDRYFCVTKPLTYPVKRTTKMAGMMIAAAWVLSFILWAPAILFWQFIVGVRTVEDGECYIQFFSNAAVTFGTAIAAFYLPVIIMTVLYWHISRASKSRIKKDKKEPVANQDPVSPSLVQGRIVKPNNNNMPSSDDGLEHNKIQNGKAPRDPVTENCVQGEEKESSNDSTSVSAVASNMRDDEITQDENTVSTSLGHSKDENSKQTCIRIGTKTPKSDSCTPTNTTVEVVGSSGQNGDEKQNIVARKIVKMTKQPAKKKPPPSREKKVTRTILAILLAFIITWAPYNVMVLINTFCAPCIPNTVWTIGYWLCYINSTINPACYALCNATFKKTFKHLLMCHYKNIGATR
Experimental: as §1

O=C(Nc1nnc(-c2ccc(F)cc2)o1)N1CCc2ccccc2C1 [MBX-4132]
Murine serum stability (% remaining after 1 hr) [1]: 101%
Average Mean Revertants/plate ([2]; TA98, 1 µg/plate, + S9): 23.5 Revertants/plate
Average Mean Revertants/plate ([2]; TA98, 1 µg/plate, no S9): 21.5 Revertants/plate
Mean Revertants/plate ([2]; TA98, 1 µg/plate, no S9, replicates): 23 Revertants/plate and 20 Revertants/plate
Average Mean Revertants/plate ([2]; TA98, 5 µg/plate, + S9): 22 Revertants/plate
Average Mean Revertants/plate ([2]; TA98, 5 µg/plate, no S9): 17.0 Revertants/plate
Mean Revertants/plate ([2]; TA98, 5 µg/plate, no S9, replicates): 18 Revertants/plate and 16 Revertants/plate
Average Mean Revertants/plate ([2]; TA98, 10 µg/plate, + S9): 21 Revertants/plate
Average Mean Revertants/plate ([2]; TA98, 10 µg/plate, no S9): 15.0 Revertants/plate
Mean Revertants/plate ([2]; TA98, 10 µg/plate, no S9, replicates): 14 Revertants/plate and 16 Revertants/plate
Average Mean Revertants/plate ([2]; TA98, 50 µg/plate, + S9): 18.5 Revertants/plate
Average Mean Revertants/plate ([2]; TA98, 50 µg/plate, no S9): 20.0 Revertants/plate
Mean Revertants/plate ([2]; TA98, 50 µg/plate, no S9, replicates): 18 Revertants/plate and 22 Revertants/plate
Average Mean Revertants/plate ([2]; TA98, 100 µg/plate, + S9): 17.5 Revertants/plate
Average Mean Revertants/plate ([2]; TA98, 100 µg/plate, no S9): 20.0 Revertants/plate
Mean Revertants/plate ([2]; TA98, 100 µg/plate, no S9, replicates): 18 Revertants/plate and 22 Revertants/plate
Average Mean Revertants/plate ([2]; TA98, 500 µg/plate, + S9): 20 Revertants/plate
Average Mean Revertants/plate ([2]; TA98, 500 µg/plate, no S9): 17.5 Revertants/plate
Mean Revertants/plate ([2]; TA98, 500 µg/plate, no S9, replicates): 19 Revertants/plate and 16 Revertants/plate
Mean Revertants/plate ([2]; TA98, + S9, 1 µg/plate): 23.5
Mean Revertants/plate ([2]; TA98, + S9, 5 µg/plate): 22.0
Mean Revertants/plate ([2]; TA98, + S9, 10 µg/plate): 21.0
Mean Revertants/plate ([2]; TA98, + S9, 50 µg/plate): 18.5
Mean Revertants/plate ([2]; TA98, + S9, 100 µg/plate): 17.5
Mean Revertants/plate ([2]; TA98, + S9, 500 µg/plate): 20.0
Mean Revertants/plate ([2]; TA98, without S9, 1 µg/plate): 21.5
Mean Revertants/plate ([2]; TA98, without S9, 5 µg/plate): 17.0
Mean Revertants/plate ([2]; TA98, without S9, 10 µg/plate): 15.0
Mean Revertants/plate ([2]; TA98, without S9, 50 µg/plate): 20.0
Mean Revertants/plate ([2]; TA98, without S9, 100 µg/plate): 20.0
Mean Revertants/plate ([2]; TA98, without S9, 500 µg/plate): 17.5
revertant colonies vs DMSO control (in words) ([2]; TA98 and TA100, with and without S9, any concentration tested): no significant deviation
Average Mean Revertants/plate ([2]; TA100, 1 µg/plate, + S9): 107.5 Revertants/plate
Average Mean Revertants/plate ([2]; TA100, 1 µg/plate, no S9): 112.5 Revertants/plate
Mean Revertants/plate ([2]; TA100, 1 µg/plate, no S9, replicates): 108 Revertants/plate and 117 Revertants/plate
Average Mean Revertants/plate ([2]; TA100, 5 µg/plate, + S9): 125.5 Revertants/plate
Average Mean Revertants/plate ([2]; TA100, 5 µg/plate, no S9): 99.0 Revertants/plate
Mean Revertants/plate ([2]; TA100, 5 µg/plate, no S9, replicates): 98 Revertants/plate and 100 Revertants/plate
Average Mean Revertants/plate ([2]; TA100, 10 µg/plate, + S9): 102 Revertants/plate
Average Mean Revertants/plate ([2]; TA100, 10 µg/plate, no S9): 97.0 Revertants/plate
Mean Revertants/plate ([2]; TA100, 10 µg/plate, no S9, replicates): 94 Revertants/plate and 100 Revertants/plate
Average Mean Revertants/plate ([2]; TA100, 50 µg/plate, + S9): 71 Revertants/plate
Average Mean Revertants/plate ([2]; TA100, 50 µg/plate, no S9): 73.0 Revertants/plate
Mean Revertants/plate ([2]; TA100, 50 µg/plate, no S9, replicates): 79 Revertants/plate and 67 Revertants/plate
Average Mean Revertants/plate ([2]; TA100, 100 µg/plate, + S9): 43 Revertants/plate
Average Mean Revertants/plate ([2]; TA100, 100 µg/plate, no S9): 54.0 Revertants/plate
Mean Revertants/plate ([2]; TA100, 100 µg/plate, no S9, replicates): 55 Revertants/plate and 53 Revertants/plate
Average Mean Revertants/plate ([2]; TA100, 500 µg/plate, + S9): 19.5 Revertants/plate
Average Mean Revertants/plate ([2]; TA100, 500 µg/plate, no S9): 35.5 Revertants/plate
Mean Revertants/plate ([2]; TA100, 500 µg/plate, no S9, replicates): 38 Revertants/plate and 33 Revertants/plate
Mean Revertants/plate ([2]; TA100, + S9, 1 µg/plate): 107.5
Mean Revertants/plate ([2]; TA100, + S9, 5 µg/plate): 125.5
Mean Revertants/plate ([2]; TA100, + S9, 10 µg/plate): 102.0
Mean Revertants/plate ([2]; TA100, + S9, 50 µg/plate): 71.0
Mean Revertants/plate ([2]; TA100, + S9, 100 µg/plate): 43.0
Mean Revertants/plate ([2]; TA100, + S9, 500 µg/plate): 19.5
Mean Revertants/plate ([2]; TA100, without S9, 1 µg/plate): 112.5
Mean Revertants/plate ([2]; TA100, without S9, 5 µg/plate): 99.0
Mean Revertants/plate ([2]; TA100, without S9, 10 µg/plate): 97.0
Mean Revertants/plate ([2]; TA100, without S9, 50 µg/plate): 73.0
Mean Revertants/plate ([2]; TA100, without S9, 100 µg/plate): 54.0
Mean Revertants/plate ([2]; TA100, without S9, 500 µg/plate): 35.5
inhibition at 10 µM [3]: 27%
inhibition at 10 µM [4]: 7%
